{"source": "patent US20150320675A1", "about": "“Modified Release Osmotic Pump for PH-Responsive Drug Delivery” (UNIVERSITY OF UTAH RESEARCH FOUNDATION, priority 2013, published 2015)", "origin": "cited, not measured here", "key": {"reverse transcriptase": {"biological_target": "reverse transcriptase (Human immunodeficiency virus type 1 group M subtype B, UniProt P04585)"}}}
{"smiles": "Cc1cc(C)cc(C(=O)c2c(C(C)C)c(=O)[nH]c(=O)n2CC2CC2)c1", "note": "[IQP-0528, 1-(cyclopropylmethyl)-6-(3,5-dimethylbenzoyl)-5-isopropylpyrimidine-2,4(1H,3H)-dione]", "values": [{"measurement": "non-nucleoside reverse transcriptase inhibition activity", "setting": "reverse transcriptase", "result": "potent nanomolar"}, {"measurement": "entry inhibition activity", "setting": "entry", "result": "potent nanomolar"}]}
